In paper PMC12655637, “Design, Synthesis, and Mechanistic Study of Novel Ciprofloxacin/Thiazole Chalcone Hybrids as Potential Anticancer Agents” (Pharmaceuticals, 2025):
pIC50: −log10 of the molar value.

Columns and labels:
[1] = test system: UACC-257; assay: NCI-60 screening, one-dose (10 µM) and five-dose, SRB; format: cell-based, human; conditions: five-dose; UACC-257
[2] = test system: T-47D; assay: as above; format: cell-based, human; conditions: five-dose
[3] = test system: A498; assay: as above; format: cell-based; conditions: five-dose, A498
[4] = test system: NCI-H522; assay: as above; format: cell-based, human
[5] = test system: OVCAR-4; assay: as above; format: cell-based, human
[6] = test system: SF-268; assay: as above; format: cell-based, human
[7] = test system: K-562; assay: as above; format: cell-based, human
[8] = test system: SK-MEL-28; assay: as above; format: cell-based, human
[9] = test system: HCT-116; assay: as above; format: cell-based, human; conditions: five-dose, HCT-116
[10] = test system: SF-295; assay: as above; format: cell-based, human
[11] = test system: BT-549; assay: as above; format: cell-based
[12] = test system: EKVX; assay: as above; format: cell-based, human
[13] = test system: 786−0; assay: as above; format: cell-based, human
[14] = test system: 60 human cancer cell lines; assay: NCI-60 screening, full panel (mean growth, MID a, ranges over all lines)
Description: The screening was performed in accordance with the protocols set forth by the Drug Evaluation Department of the National Cancer Institute (NCI), Bethesda, USA, for in vitro anticancer efficacy at a single concentration of 10 µM against a panel of 60 cancer cell lines derived from nine distinct organs (https://dctd.cancer.gov/data-tools-biospecimens/data (accessed on 15 March 2023 and 6 January 2024)) [37].
The log10 GI50, log10 TGI, and log10 LC50 values were subsequently calculated as the averages of the log10 values of the respective individual GI50, TGI, and LC50 measurements. Negative numbers signified the most sensitive cell lines.
One way to measure a compound’s selectivity is to divide its subpanel MID^b (in μM) by the MID^a (in μM), which is the average sensitivity of all cell lines to the test agent.
At the National Cancer Institute (NCI) in Bethesda, USA, researchers examined the anticancer potential of the target compounds under investigation using nine panels of sixty different cell lines obtained from nine different cancers that were housed in the NCI library. Following the protocols laid out by the National Cancer Institute (https://dctd.cancer.gov/data-tools-biospecimens/data (accessed on 15 March 2023 and 6 January 2024)), the screening procedures were carried out [37]. The anticancer screening was carried out at a single dose of 10^−5 M; the results obtained were expressed as growth inhibition (%).
The anti-cancer potential of the tested compounds was evaluated at the National cancer institute (NCI), Bethesda, USA, against 9 panels of 60 various cell lines derived from nine human tumours available usually at NCI library. The procedures for the screening were described in details in NCI website (dttp://www.dtp.nci.nih.gov.) and were done according to NCI protocols. The anticancer screening was carried out at single dose of 10^-5 M. The results obtained as growth inhibition (%).
Cell lines were grown in Roswell Park Memorial Institute medium (RPMI) with 5% fetal bovine serum and 2% μM L-glutamine. Cancer cells are inoculated into 96 well microtiter plates in 100 μL at plating densities ranging from 5000 to 40,000 cells/well depending on the doubling time of individual cell lines. Then microtiter plates are incubated at 37 °C, 5% CO2, 95% air and 100% relative humidity for 24 h prior to the addition of the tested compounds. After 24 h, two plates of each cell line are fixed in situ with trichloroacetic acid (TCA). The tested compounds were dissolved in dimethyl sulfoxide (DMSO) and stored in the freezer prior to use. An aliquot of frozen drug concentrate is diluted to the desired concentration with complete medium containing 50 μg/mL gentamicin.

[15] = test system: SNB-75; assay: NCI-60 screening, one-dose (10 µM) and five-dose, SRB; format: cell-based, human
[16] = test system: SR; assay: as above; format: cell-based, human; conditions: five-dose
[17] = test system: MDA-MB-435; assay: as above; format: cell-based
[18] = Homo sapiens, read-out: LC50 (the source's name)
[19] = Homo sapiens, five-dose, NCI-H522
[20] = Homo sapiens, five-dose, OVCAR-4
[21] = Homo sapiens, five-dose, SF-268
[22] = Homo sapiens, K562, five-dose, K-562
[23] = Homo sapiens, five-dose, SK-MEL-28
[24] = Homo sapiens, five-dose, SF-295
[25] = Homo sapiens, five-dose, BT-549
[26] = Homo sapiens, five-dose, SNB-75

Compound: Cc1nc(SCC(=O)N2CCN(c3cc4c(cc3F)c(=O)c(C(=O)O)cn4C3CC3)CC2)sc1C(=O)/C=C/c1cccc(F)c1 [Compound 4d, (E)-1-Cyclopropyl-6-fluoro-7-(4-(2-((5-(3-(3-fluorophenyl)acryloyl)-4-methylthiazol-2-yl)thio)acetyl)piperazin-1-yl)-4-oxo-1,4-dihydroquinoline-3-carboxylic Acid]
- TGI [1]: 100.0 µM
- GI50 ([2]; Homo sapiens, T47D): > 100 µM
- pIC50 ([2]; Homo sapiens, T47D): < 4.00
- CC50 ([2]; Homo sapiens, T47D, read-out: LC50 (the source's name)): > 100 µM
- TGI [2]: 77.6 µM
- GI50 ([3]; Homo sapiens): > 100 µM
- pIC50 ([3]; Homo sapiens): < 4.00
- CC50 [3, 18]: > 100 µM
- TGI [3]: 100.0 µM
- activity at 10 µM ([4]; Homo sapiens, 10 μM, NCI-H522, Non-Small-Cell Lung Cancer, read-out: Growth percentage): 88.2%
- GI50 [4, 19]: > 100 µM
- pIC50 [4, 19]: < 4.00
- LC50 (concentration killing 50% of cells) [4, 19]: > 100 µM
- TGI ([4]; five-dose, NCI-H522): 100.0 µM
- activity at 10 µM ([5]; Homo sapiens, 10 μM, OVCAR-4, Ovarian Cancer, read-out: Growth percentage): 94.5%
- GI50 [5, 20]: > 100 µM
- pIC50 [5, 20]: < 4.00
- CC50 ([5]; Homo sapiens, five-dose, OVCAR-4, read-out: LC50 (the source's name)): > 100 µM
- TGI ([5]; five-dose, OVCAR-4): 100.0 µM
- activity at 10 µM ([6]; Homo sapiens, 10 μM, SF-268, CNS Cancer, read-out: Growth percentage): 25.7%
- GI50 [6, 21]: 27.5 µM
- pIC50 [6, 21]: < 4.00
- CC50 ([6]; Homo sapiens, five-dose, SF-268, read-out: LC50 (the source's name)): > 100 µM
- TGI ([6]; five-dose, SF-268): 100.0 µM
- activity at 10 µM ([7]; Homo sapiens, K562, 10 μM, K-562, Leukemia, read-out: Growth percentage): 56.1%
- GI50 [7, 22]: 1.58 µM
- pIC50 [7, 22]: 5.62
- CC50 ([7]; Homo sapiens, K562, five-dose, K-562, read-out: LC50 (the source's name)): 9.12 µM
- TGI ([7]; five-dose, K-562): 8.7 µM
- activity at 10 µM ([8]; Homo sapiens, 10 μM, SK-MEL-28, Melanoma, read-out: Growth percentage): 77.5%
- GI50 [8, 23]: > 100 µM
- pIC50 [8, 23]: < 4.00
- CC50 ([8]; Homo sapiens, five-dose, SK-MEL-28, read-out: LC50 (the source's name)): > 100 µM
- TGI ([8]; five-dose, SK-MEL-28): 100.0 µM
- GI50 ([9]; Homo sapiens): 0.21 µM
- pIC50 ([9]; Homo sapiens): 6.47
- TGI [9]: 100.0 µM
- activity at 10 µM ([10]; Homo sapiens, 10 μM, SF-295, CNS Cancer, read-out: Growth percentage): 93.1%
- GI50 [10, 24]: > 100 µM
- pIC50 [10, 24]: < 4.00
- CC50 ([10]; Homo sapiens, five-dose, SF-295, read-out: LC50 (the source's name)): > 100 µM
- TGI ([10]; five-dose, SF-295): 8.7 µM
- activity at 10 µM ([11]; Homo sapiens, 10 μM, BT-549, Breast Cancer, read-out: Growth percentage): -88.5%
- GI50 [11, 25]: 5.4 µM
- pIC50 [11, 25]: 4.59
- CC50 ([11]; Homo sapiens, five-dose, BT-549, read-out: LC50 (the source's name)): > 100 µM
- TGI ([11]; five-dose, BT-549): 100.0 µM
- activity at 10 µM ([12]; Homo sapiens, 10 μM, Non-Small-Cell Lung Cancer, read-out: Growth percentage): 70.2%
- GI50 ([12]; Homo sapiens, five-dose): 1.7 µM
- pIC50 ([12]; Homo sapiens, five-dose): 5.23
- CC50 ([12]; Homo sapiens, five-dose, read-out: LC50 (the source's name)): > 100 µM
- TGI ([12]; five-dose): 100.0 µM
- activity at 10 µM ([13]; Homo sapiens, 10 μM, 786−0, Renal Cancer, read-out: Growth percentage): 41.9%
- pIC50 ([13]; Homo sapiens, five-dose, 786−0): < 4.00
- CC50 ([13]; Homo sapiens, five-dose, 786−0, read-out: LC50 (the source's name)): > 100 µM
- TGI ([13]; five-dose, 786−0): 100.0 µM
- CC50 ([14]; Homo sapiens, read-out: LC50): 0.6 to 100 µM
- activity at 10 µM ([14]; Homo sapiens, read-out: Mean growth percentage): 20.2%
- Full-panel MG-MID ([14]; mean sensitivity across all cell lines in the panel): 70.2 µM
- activity at 10 µM ([15]; Homo sapiens, 10 μM, SNB-75, CNS Cancer, read-out: Growth percentage): 49.1%
- GI50 [15, 26]: > 100 µM
- pIC50 [15, 26]: < 4.00
- CC50 ([15]; Homo sapiens, five-dose, SNB-75, read-out: LC50 (the source's name)): > 100 µM
- TGI ([15]; five-dose, SNB-75): 100.0 µM
- GI50 ([16]; Homo sapiens): 1.4 µM
- pIC50 ([16]; Homo sapiens): 5.64
- CC50 [16, 18]: 5.3 µM
- TGI [16]: 100.0 µM
- GI50 ([17]; Homo sapiens, MDA-MB-435): 3.7 µM
- pIC50 ([17]; Homo sapiens, MDA-MB-435): 5.16
- activity at 10 µM ([17]; Homo sapiens, MDA-MB-435, read-out: Growth percentage, 10 μM, MDA-MB-435, Melanoma): -3.7%
- CC50 ([17]; Homo sapiens, five-dose, MDA-MB-435, read-out: LC50 (the source's name)): > 100 µM
- TGI ([17]; five-dose, MDA-MB-435): 100.0 µM
